What was measured:
[1] = biological target: human GYS1 (Homo sapiens (Human), UniProt P13807); test: GYS1 coupled enzyme assay (PK/LDH); format: biochemical; settings: recombinant hGYS1/GN1 protein; geometric mean of at least 2 assay runs
Excerpt: (§1) The GYS1 coupled enzyme assay is a kinetic biochemical assay that indirectly quantifies the rate of glycogen synthesis by coupling the conversion of GYS1 substrate UDP-glucose into UDP with downstream enzymatic reactions. UDP is released from UDP-glucose as glucose monomers are linked into the growing glycogen strand by GYS1. The coupled assay then proceeds with pyruvate kinase utilizing UDP and phospho (enol) pyruvate (PEP) to form pyruvate. Lactate dehydrogenase then converts pyruvate and NADH into lactate and NAD+. Oxidation of NADH to NAD+ can be measured continuously with a plate reader by quantifying the decrease in NADH absorbance at 340 nm over time.
Compounds that inhibit the hGYS1 enzyme and, subsequently, the downstream conversion of NADH to NAD+, were tested using assay ready plates (black, clear bottom 384 well plates) in a final DMSO reaction volume of 2.5% DMSO. The Assay Buffer contained 50 mM Tris pH 7.5, 2 mM MgCl2, and 100 mM KCl. Fresh stocks of BSA at a final concentration of 0.02% and TCEP at 1 mM were added before splitting buffer into hGYS1 buffer and substrate buffer. To the hGYS1 buffer, rabbit liver glycogen was added at a final concentration of 0.2% glycogen. Glucose-6-Phosphate was added at 1 mM, recombinant hGYS1/GN1 protein was added at 50 nM to the substrate buffer, phosphoenolpyruvate (PEP) was added at 2 mM, UDP-Glucose was added at 0.8 mM, NADH) was added at 0.6 mM, and Pyruvate Kinase/Lactate Dehydrogenase was added at 20 units/mL. The reaction was initiated by mixing hGYS1 buffer and substrate buffer at a 1:1 ratio. Both buffers were plated using a liquid dispensing device with hGYS1 buffer plated first followed by the substrate buffer. Plates were spun briefly to eliminate air bubbles and are immediately read in continuous mode at an absorbance of 340 nm, for 10 time points in one-minute increments, for a total of 10 minutes. The slope from these 10 time points was normalized to the positive and negative control wells.
(§2) Unless otherwise specified, IC50 values are reported as the geometric mean of at least 2 assay runs on separate days. Each run represents the average of a technical replicate, where each compound was assayed twice in the same plate.

[2] = biological target: hGYS1 enzyme, glycogen synthesis in HeLa cells (Homo sapiens (Human), UniProt P13807); test: GYS1 cell based assay (glycogen synthesis in HeLa cells, Glucose-glo); settings: starved HeLa cells, 24 h incubation; geometric mean of at least 2 assay runs; read-out: Cellular IC50
Excerpt: The GYS1 cell based assay is a bioluminescent assay that quantifies the glucose resulting from glycogen digestion; the quantified glucose is an indirect measure of GYS1 glycogen synthesis. Newly synthesized glycogen is digested using Glucoamylase; the resulting glucose is quantified by using the Glucose-glo assay kit from Promega. Glucose-glo works by coupling glucose oxidation and NADH production with a bioluminescent system that is activated with NADH. Glucose is oxidized by Glucose dehydrogenase and the reaction reduces NAD+ to NADH; NADH activates Reductase which reduces a pro-luciferin Reductase Substrate to luciferin. Luciferin is detected in a luciferase reaction using Ultra-Glo rLuciferase and ATP, and the luminesce produced is proportional to the glucose in the sample. The luminescence is measured as a single point read in a plate reader.
Compounds that inhibit the hGYS1 enzyme and, subsequently, the glycogen synthesis in cells, were tested using assay ready plates (white, clear bottom 384 well plates) in a final DMSO reaction volume of 1% DMSO. Compounds in the assay ready plates were mixed with media with no additives, except for 20 mM glucose prior to cell addition. HeLa cells were starved in media with no additives, except for 1× Glutamax for 24 h. Starved HeLa cells were plated, in a 1:1 ratio to the media in the assay ready plate and incubated for 24 h at 37° C. and 5% CO2. Cells were washed in 1×PBS buffer and lysed in lysis buffer containing 50% 1×PBS and 25% 0.3 N HCl of the final volume in the well or reaction volume; cells were incubated with lysis buffer for 10 minutes and quenched with the remaining 25% of the reaction volume that consisted of 450 mM Tris pH 8.0. Lysates were mixed in a 1:1 ratio with Glucoamylase in 100 mM Sodium Acetate buffer, pH 5.3; the mixture was incubated for 1 h at 37° C. The digested lysate was mixed in a 1:1 ratio with Glucose-glo detection mixture as per vendor recommendations (Luciferase detection buffer, Reductase, Reductase substrate, Glucose dehydrogenase, and NAD) in read-out plates (solid white 384-well plates) and incubated for 1 h at RT. The plates were read using a plate reader with luminescence capabilities. Each compound concentration Relative Luminescence Unit (RLU) was averaged and normalized to the average RLU of the positive and negative controls to obtain a percentage inhibition. The normalized data vs. concentration was plotted; to determine the half-maximal concentration (IC50), the Levenberg-Marquardt algorithm was used to fit a Hill equation to the dose response data.
as §2, with “2 assay runs on separate days. […] Unless otherwise specified, IC50 values are reported as the geometric mean of at least two” for “2”

[3] = biological target: human GYS2 (Homo sapiens (Human), UniProt P54840); test: GYS2 coupled enzyme assay (PK/LDH); format: biochemical; settings: recombinant hGYS2/GN1 protein; geometric mean of at least 2 assay runs
Excerpt: as §1, with “GYS2” for “GYS1”, “GYS2.” for “GYS1.”
Compounds that inhibit the hGYS2 enzyme and, subsequently, the downstream conversion of NADH to NAD+, were tested using assay ready plates (black, clear bottom 384 well plates) in a final DMSO reaction volume of 2.5% DMSO. The Assay Buffer contained 50 mM Tris pH 7.5, 2 mM MgCl2, and 100 mM KCl. Fresh stocks of BSA at a final concentration of 0.02% and TCEP 1 mM were added before splitting buffer into hGYS2 buffer and substrate buffer. To the hGYS2 buffer, rabbit liver glycogen was added at a final concentration of 0.2% glycogen. Glucose-6-Phosphate was added at 2 mM, recombinant hGYS2/GN1 protein was added at 200 nM to the substrate buffer, phosphoenolpyruvate (PEP) was added at 2 mM, UDP-Glucose was added at 2 mM, NADH was added at 0.6 mM, and Pyruvate Kinase/Lactate Dehydrogenase was added at 20 units/mL. The reaction was initiated by mixing hGYS2 buffer and substrate buffer at a 1:1 ratio. Both buffers were plated using a liquid dispensing device with hGYS2 buffer plated first followed by the substrate buffer. Plates were spun briefly to eliminate air bubbles and are immediately read in continuous mode at an absorbance of 340 nm, for 10 time points in one-minute increments, for a total of 10 minutes. The slope from these 10 time points was normalized to the positive and negative control wells.
as §2, with “2 assay runs on separate days. […] Unless otherwise specified, IC50 values are reported as the geometric mean of at least two” for “2”

Chain of human GYS2 (P54840 whole entry): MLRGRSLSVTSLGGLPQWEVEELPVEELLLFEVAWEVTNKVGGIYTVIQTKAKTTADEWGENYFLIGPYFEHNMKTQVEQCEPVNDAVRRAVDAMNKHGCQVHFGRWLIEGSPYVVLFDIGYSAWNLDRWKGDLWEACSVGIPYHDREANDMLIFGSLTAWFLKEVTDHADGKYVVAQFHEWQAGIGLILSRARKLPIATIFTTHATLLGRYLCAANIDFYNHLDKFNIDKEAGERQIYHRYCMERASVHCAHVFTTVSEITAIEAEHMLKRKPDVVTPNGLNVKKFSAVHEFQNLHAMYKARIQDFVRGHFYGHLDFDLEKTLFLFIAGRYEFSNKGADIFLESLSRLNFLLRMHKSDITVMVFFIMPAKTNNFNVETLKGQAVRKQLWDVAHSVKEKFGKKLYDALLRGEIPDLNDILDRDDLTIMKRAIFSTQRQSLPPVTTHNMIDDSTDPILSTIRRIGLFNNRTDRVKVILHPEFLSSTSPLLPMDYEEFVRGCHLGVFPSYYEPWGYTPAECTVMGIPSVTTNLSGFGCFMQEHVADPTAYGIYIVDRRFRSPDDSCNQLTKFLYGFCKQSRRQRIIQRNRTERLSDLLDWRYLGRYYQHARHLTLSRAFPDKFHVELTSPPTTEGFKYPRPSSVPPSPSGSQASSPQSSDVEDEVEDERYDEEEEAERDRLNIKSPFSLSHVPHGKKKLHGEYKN
Chain of human GYS2 (P46976 whole entry partner): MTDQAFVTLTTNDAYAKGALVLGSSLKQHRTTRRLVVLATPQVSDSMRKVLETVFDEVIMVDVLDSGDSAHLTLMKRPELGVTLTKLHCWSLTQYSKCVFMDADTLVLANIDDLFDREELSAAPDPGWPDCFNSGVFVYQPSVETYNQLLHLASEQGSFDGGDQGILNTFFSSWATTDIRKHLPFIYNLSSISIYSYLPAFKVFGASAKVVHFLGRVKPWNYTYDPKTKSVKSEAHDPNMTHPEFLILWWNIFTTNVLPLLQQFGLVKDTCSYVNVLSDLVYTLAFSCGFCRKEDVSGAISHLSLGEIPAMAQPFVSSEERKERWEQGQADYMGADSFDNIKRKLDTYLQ
Chain of human GYS1 (P13807 whole entry): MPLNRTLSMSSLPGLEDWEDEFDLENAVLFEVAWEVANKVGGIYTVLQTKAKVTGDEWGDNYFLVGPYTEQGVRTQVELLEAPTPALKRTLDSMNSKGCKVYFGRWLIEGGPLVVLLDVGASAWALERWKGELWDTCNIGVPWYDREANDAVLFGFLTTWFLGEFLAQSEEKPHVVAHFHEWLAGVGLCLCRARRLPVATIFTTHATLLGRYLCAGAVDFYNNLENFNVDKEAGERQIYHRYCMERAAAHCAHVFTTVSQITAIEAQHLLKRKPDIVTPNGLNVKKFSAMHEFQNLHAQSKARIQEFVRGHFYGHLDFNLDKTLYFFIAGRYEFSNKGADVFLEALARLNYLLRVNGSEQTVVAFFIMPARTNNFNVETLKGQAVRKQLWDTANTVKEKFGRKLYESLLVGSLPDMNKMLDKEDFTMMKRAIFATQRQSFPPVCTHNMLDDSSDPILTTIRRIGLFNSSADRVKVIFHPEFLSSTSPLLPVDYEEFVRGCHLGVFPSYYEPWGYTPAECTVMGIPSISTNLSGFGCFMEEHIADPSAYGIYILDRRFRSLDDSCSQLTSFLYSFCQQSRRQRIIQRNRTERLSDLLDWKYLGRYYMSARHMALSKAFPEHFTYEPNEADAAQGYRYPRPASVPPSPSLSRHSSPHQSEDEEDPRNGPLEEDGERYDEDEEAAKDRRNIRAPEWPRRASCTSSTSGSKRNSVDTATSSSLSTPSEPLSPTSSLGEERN
Chain of human GYS1 (P46976 whole entry partner): as the sequence (P46976 whole entry partner) above
Chain of hGYS1 enzyme, glycogen synthesis in HeLa cells (P13807 whole entry): as the sequence (P13807 whole entry) above

| SMILES | IC50 [1] | IC50 [2] | IC50 [3] |
| --- | --- | --- | --- |
| CC(C)c1ccc([C@@H](NC(=O)[C@@H]2CCC[C@@H]2C(=O)O)c2ccn[nH]2)cc1F [Compound 27, (1S,2R)-2-(((R)-(3-fluoro-4-isopropylphenyl)(1H-pyrazol-5-yl)methyl)carbamoyl)cyclopentane-1-carboxylic acid] | 1.48 µM | 46.3 µM | > 100 µM |
| COc1ccccc1[C@H](NC(=O)[C@@H]1CCC[C@@H]1C(=O)O)c1ccc(C(C)C)cc1 [Compound 39, (1S,2R)-2-(((R)-(4-isopropylphenyl)(2-methoxyphenyl)methyl)carbamoyl)cyclopentane-1-carboxylic acid] | 3.4 µM | 41.3 µM | 66.4 µM |
| Cc1ccccc1[C@H](NC(=O)[C@@H]1CCC[C@@H]1C(=O)O)c1ccc(C(C)C)cc1 [Compound 40, (1S,2R)-2-(((R)-(4-isopropylphenyl)(o-tolyl)methyl)carbamoyl)cyclopentane-1-carboxylic acid] | 0.39 µM |  | 10.8 µM |
| CC(C)c1c(F)cc([C@@H](NC(=O)[C@@H]2CCC[C@@H]2C(=O)O)c2ccccc2)cc1F [Compound 8, (1S,2R)-2-(((S)-(3,5-difluoro-4-isopropylphenyl)(phenyl)methyl)carbamoyl)cyclopentane-1-carboxylic acid] | 0.239 µM | 3.93 µM | > 100 µM |
| O=C(O)[C@H]1CCC[C@H]1C(=O)N[C@@H](c1ccccc1)c1ccc(C2CC2)c(F)c1 [Compound 17, (1S,2R)-2-(((S)-(4-cyclopropyl-3-fluorophenyl)(phenyl)methyl)carbamoyl)cyclopentane-1-carboxylic acid] | 1.58 µM | 27.3 µM | > 100 µM |
| CC(C)c1ccc([C@@H](NC(=O)[C@@H]2CCC[C@@H]2C(=O)O)c2cccs2)cc1 [Compound 45, (1S,2R)-2-(((R)-(4-isopropylphenyl)(thiophen-2-yl)methyl)carbamoyl)cyclopentane-1-carboxylic acid] | 0.364 µM | 6.6 µM | 98 µM |
| O=C(O)[C@H]1CCC[C@H]1C(=O)N[C@@H](c1ccccc1)c1ccc(C2CCC2)cc1 [Compound 34, (1S,2R)-2-(((S)-(4-cyclobutylphenyl)(phenyl)methyl)carbamoyl)cyclopentane-1-carboxylic acid] | 0.426 µM |  | 67.1 µM |
| CC(C)c1ccc(C(NC(=O)C2CCCC2C(=O)O)c2cccs2)cc1 (single isomer, unassigned) [Compound 46, (1S or 1R,2R or 2S)-2-(((S or R)-(4-isopropylphenyl)(thiophen-2-yl)methyl)carbamoyl)cyclopentane-1-carboxylic acid] | > 99.9 µM |  | > 250 µM |
| CC(C)c1ccc(C(NC(=O)C2CCCC2C(=O)O)c2cccs2)cc1 (single isomer, unassigned) [Compound 43, (1R or 1S,2S or 2R)-2-(((S or R)-(4-isopropylphenyl)(thiophen-2-yl)methyl)carbamoyl)cyclopentane-1-carboxylic acid] | 19.8 µM |  | > 250 µM |
| CC(C)c1ccc([C@@H](NC(=O)[C@@H]2CCCC[C@@H]2C(=O)O)c2cccs2)cc1 [Compound 42, (1S,2R)-2-(((R)-(4-isopropylphenyl)(thiophen-2-yl)methyl)carbamoyl)cyclohexane-1-carboxylic acid] | 0.961 µM |  | > 77.6 µM |
| CC(C)c1ccc([C@@H](NC(=O)[C@@H]2CCC[C@@H]2C(=O)O)c2ccccc2)cc1 [Compound 41, (1S,2R)-2-(((S)-(4-isopropylphenyl)(phenyl)methyl)carbamoyl)cyclopentane-1-carboxylic acid] | 0.637 µM |  | > 87.1 µM |
| CC(C)c1ccc(C(NC(=O)C2CCCC2C(=O)O)c2cccs2)cc1 (single isomer, unassigned) [Compound 44, (1R or 1S,2S or 2R)-2-(((R or S)-(4-isopropylphenyl)(thiophen-2-yl)methyl)carbamoyl)cyclopentane-1-carboxylic acid] | 12.9 µM |  | 11.7 µM |
| CC(C)c1ccc([C@@H](NC(=O)[C@@H]2CCC[C@@H]2C(=O)O)c2cccc3oc(=O)[nH]c23)cc1 [Compound 10, (1S,2R)-2-(((R)-(4-isopropylphenyl)(2-oxo-2,3-dihydrobenzo[d]oxazol-4-yl)methyl)carbamoyl)cyclopentane-1-carboxylic acid] | 2.93 µM | > 100 µM |  |
| CC(C)c1ccc([C@@H](NC(=O)[C@@H]2CCC[C@@H]2C(=O)O)c2ccccc2)nc1 [Compound 36, (1S,2R)-2-(((S)-(5-isopropylpyridin-2-yl)(phenyl)methyl)carbamoyl)cyclopentane-1-carboxylic acid] | 0.837 µM |  | > 100 µM |
| CC(C)c1ccc([C@@H](NC(=O)[C@@H]2CCC[C@@H]2C(=O)O)c2cccc3c2[nH]c(=O)n3C)cc1F [Compound 7, (1S,2R)-2-(((R)-(3-fluoro-4-isopropylphenyl)(1-methyl-2-oxo-2,3-dihydro-1H-benzo[d]imidazol-4-yl)methyl)carbamoyl)cyclopentane-1-carboxylic acid] | 0.884 µM | > 10 µM |  |
| CC(C)c1ccc([C@@H](NC(=O)[C@@H]2CCC[C@@H]2C(=O)O)c2cccnc2N)cc1 [Compound 29, (1S,2R)-2-(((R)-(2-aminopyridin-3-yl)(4-isopropylphenyl)methyl)carbamoyl)cyclopentane-1-carboxylic acid] | 1.52 µM | 65.6 µM |  |

Source: patent US20260021085A1, “CYCLOALKYL CARBOXYLIC ACID DERIVATIVES AS INHIBITORS OF GLYCOGEN SYNTHASE 1 (GYS1) AND METHODS OF USE THEREOF” (Maze Therapeutics, Inc., priority 2022, published 2026)
